Source: PMC4506598, “A small molecular agent YL529 inhibits VEGF-D-induced lymphangiogenesis and metastasis in preclinical tumor models in addition to its known antitumor activities” (BMC Cancer, 2015)
Like-named read-outs stand apart in the source and are kept apart here.

Assays:
[1] = system: VEGFR2; conditions: 10 μM; cited from earlier work
[2] = system: VEGF-D-LL/2 tumors; test: VEGF-D-LL/2 syngeneic s.c. tumor model; format: in vivo
Experimental: (§1) Seven-week-old female C57 BL/6 mice (Beijing animal center, Beijing, China) were used. VEGE-D-LL/2 cells (1 × 10^6) were injected intramuscularly and subcutaneously in hind limb of mice. The mice were randomized into 5 groups (n = 10 per groups) and orally administered 37.5, 75 and 150 mg/kg/day YL529, vehicle and saline alone (N.S.), respectively for 14 days when tumors became visible the 10th day after cells were implanted. Tumor growth and mice weight was monitored every 3 days. When animals were sacrificed with CO2 gas at the end of drug administration, tumor tissues, lung organs and local lymph nodes were removed, weighted and calculated by manual. Tumor size was determined by measuring the largest and perpendicular diameters every 3 days, tumor volume was calculated using the formula: volume (mm^3) = 0.5 × length × width^2. In addition, the same subcutaneously tumor models were used to monitor the survival time of experimental mice after drug administration. All animals experiments performed were in accordance with the guidelines of the institute’s Animal Care and Use Committee of Sichuan University (Chengdu, China).
(§2) Tumor tissues from vehicle and 150 mg/kg YL529 groups were fixed in 4 % paraformaldehyde, dehydrated and embedded in paraffin [27]. Sections of these tissues were subsequently incubated with LYVE-1 and corresponding second antibodies and visualized using peroxidase-DAB. TUNEL staining was also performed for fixed tissues (Promega, USA). Quantification was done as described. Briefly, the microvessel counting was done in representative 200× fields or three high-power (400×) fields of the highest vascular density.
(§3) Based on the safety profile and the in vivo pharmacokinetics of YL529, chronic oral administration of YL529 at daily dosages of 37.5 ~ 150 mg/kg/day was chosen to treat the mice with VEGF-D-LL/2 tumors (syngeneic s.c. and muscle models).

[3] = system: VEGF-D-LL/2 cells; test: western blot of p-JNK, Bax, Bcl-2 in VEGF-D-LL/2 cells; format: cell-based, murine
Experimental: (§4) Standard western blot analysis was performed. Briefly, Cell lysates were washed with phosphate buffered saline (PBS) and lysed in RIPA (radioimmunoprecipitation assay) buffer. Then lysates were centrifuged at 12000 g for 30 min at 4 °C. The Bio-Rad Protein Assay kit (Bio-Rad Laboratories) was used to determine the samples protein concentration according to the manufacturers’ recommendations. The lysates were dissolved in 5 × SDS sample buffer and denatured, then subjected to 6 % to 12 % SDS-PAGE (sodium dodecyl sulfate polyacrylamide gel electrophoresis) according to molecular weight and transferred onto PVDF (polyvinylidene fluoride) (Bio-Rad, Hercules, CA) membranes. Membranes were blocked for 1 h in 5 % dried milk in TBS/T at room temperature and incubated overnight at 4 °C with the primary antibodies and horseradish peroxidase-conjugated secondary antibodies. Protein bands were visualized with enhanced chemiluminescent substrate (Amersham Biosciences Corp., Piscataway, NJ).

[4] = system: HLECs; test: transwell invasion assay; format: cell-based; conditions: Homo sapiens, read-out: inhibition of cell invasion
Experimental: Transwell migration assay was adopted to indicate the anti-metastasis effect of YL529 [26]. Briefly, the transwell were pre-coated with 25 % Matrigel Matrix containing growth factors (BD Biosciences, Bedford, MA) for 30 min at 37 °C. And then the bottom chambers were filled with 600 μl ECM medium and the top chambers were seeded with 4 × 10^4 cells HLECs (100 μl/well). The top and bottom chambers were incubated for another 24 h. Then cells on the top surface of the membrane were scraped with a cotton swab. Cells on the bottom side of the membrane were fixed with 4 % paraformaldehyde and stained with 0.1 % crystal violet (Sigma-Aldrich, USA). An inverted microscope (Zeiss, Axiovert 200, Germany) was used to obtain the images and the invading cells were quantified.
To further measure the effect of YL529 on HLECs invasion, we used a transwell assay and measured the number of HLECs that passed through a membrane barrier following treatment with various concentrations of YL529 [29].

[5] = system: VEGFR-3; conditions: 10 μM; cited from earlier work
[6] = system: VEGF-D-LL/2 tumors; test: VEGF-D-LL/2 syngeneic muscle tumor metastasis model; format: in vivo, C57 BL/6 mice; conditions: for percent of mice with local lymph node metastasis: vehicle 80 % ~ 90 %
Experimental: as §1, §2, §3

[7] = high-dose toxicity, organ parameters in rats; format: in vivo; conditions: SD rats; for Heart index / Kidney index / Liver index / Lung index / Spleen index: oral 6000 mg/kg
[8] = pharmacokinetics after oral administration in mice; format: in vivo, C57 BL/6 mice; conditions: for half-life: po
Experimental: C57 BL/6 mice (n = 3 per time point) were administered 150 mg/kg YL529 orally. Blood samples of the mice were collected at appropriate intervals and the plasma concentration of YL529 was analyzed by HPLC (Waters, MA, USA). The pharmacokinetic characteristics and parameters were analyzed using Pharmacokinetic Software of Drug and Statistics (DAS, edited and published by the Mathematical Pharmacology Professional Committee of China, Shanghai, China).

[9] = system: HLECs; test: CCK-8 cell viability assay; format: cell-based; conditions: Homo sapiens, 48 h, read-out: IC50, proliferation of HLECs
Experimental: (§5) Cell viability assays were performed using CCK-8 kit. Briefly, VEGF-D-LL/2 cells, parental LL/2 cells and HLECs were treated with various concentrations of YL529 in 96-well culture plates for 48 h. CCK-8 was added to the cells and the plate was incubated for an additional 2–4 h. The optical density (OD) was then measured at 450 nm using a Spectra MAX M5 microplate spectrophotometer (Molecular Devices, Sunnyvale, CA).
CCK-8 assay was used to evaluate the potential proliferation inhibition effect of HLECs after treated with YL529 or vehicle for 48 h.

[10] = safety profile in mice; format: in vivo; conditions: 150 mg/kg daily for 18 days
Experimental: To evaluate the safety profile of YL529 (150 mg/kg) in vivo, we have observed the gross measures such as weight loss, life span, behavior and feedings. Moreover, we have also investigated the mortality and clinical signs of C57BL/6 mice throughout oral administration period. In addition, blood samples and heart, liver, spleen, lung, and kidney tissues of mice were collected; the histopathological, serum biochemistry and hematological analysis were done to observe the possible pathological changes. In addition, we also evaluated the safety profiles of YL529 after oral administration with high dose (6000 mg/kg) for 14 days.
Currently, side effects are the prevalent shortcomings of anticancer drugs.

[11] = system: p-VEGFR-3; test: western blot of VEGFR-3/p-VEGFR-3 in HLECs; format: cell-based, human; conditions: after 2 h of treatment
Experimental: as §4
To gain in-depth insight into the molecular mechanism of anti-lymphangiogenesis effects of YL529, the expression levels of VEGFR-3/p-VEGFR-3 in HLECs were analyzed by western blotting in vitro.

[12] = system: VEGF-D-LL/2 cells; test: CCK-8 cell viability assay; format: cell-based, murine; conditions: Mus musculus, 48 h, read-out: IC50, proliferation of VEGF-D-LL/2 cells
Experimental: The transfected murine LL/2 Lewis lung carcinoma cells with the pcDNA3.1 (+) expression vector containing mouse VEGF-D (VEGF-D-LL/2 cells) or pcDNA3.1 (vector alone) were transfected as reported before obtained in our laboratory. The cell lines were maintained in an atmosphere of 5 % CO2 at 37 °C in cell culture medium DMEM supplemented with 10 % fetal bovine serum. Western blot analysis was performed to analyze the expression of recombinant VEGF-D of these cells.
as §5
(§6) VEGF-D-LL/2 cells were previously established by transfection with the pcDNA3.1 (+) expression vector containing mouse VEGF-D [31]. Similar to the previous data from our group, this study uses a VEGF-D antibody that detects the mature form of VEGF-D, because the fully mature cleaved form of 21 kD has the greatest affinity for the receptors, and can bind and activate not only VEGFR-2 but also VEGFR-3.

[13] = system: HLECs; test: tube formation assay; format: cell-based; conditions: Homo sapiens, 6 h
Experimental: The antilymphogenic effects of YL529 were analyzed in vitro using a tube-formation assay in HLECs. Briefly, 96-well plate was pre-incubated with 100 μl per well of Matrigel Matrix at 37 °C for 30 min, HLECs were seeded at a density of 3 × 10^4 cells per well in ECM medium. And after cultured in the presence or absence of designed concentrations of YL529 on Matrigel Matrix at 37 °C another 6 h, tube formation by endothelial cells was evaluated and photographed under an inverse microscope (Zeiss, Axiovert 200, Germany).
To further understand the mechanism of the anti-lymphogenic effect of YL529, the antilymphogenic tube formation effect of YL529 was analyzed with cultured HLECs in vitro [30]. […] In great contrast, HLECs without YL529 treatment spread and aligned with each other and formed a rich meshwork of branching capillary-like tubules within 6 h (Fig. 2c).

[14] = system: parental LL/2 cells; test: CCK-8 cell viability assay; format: cell-based, murine; conditions: Mus musculus, 48 h, read-out: IC50, proliferation of parental LL/2 cells
Experimental: Human lymphatic endothelial cells (HLECs) were purchased from the ScienCell™ Research Laboratories and cultured in endothelial cell medium (ECM) containing 5 % fetal bovine serum (FBS), 1 % endothelial cell growth supplement (ECGS), 100 IU/mL penicillin and 100 μg/mL streptomycin. Lewis lung carcinoma LL/2 cells were obtained from American Type Culture Collection (ATCC) and cultured in DMEM containing 10 % FBS, 100 IU/mL penicillin and 100 μg/mL streptomycin. Subcultures were performed with trypsin-EDTA. All cells were incubated in an atmosphere of 5 % CO2 at 37 °C.
as §5, §6

[15] = system: HLECs; test: scratch-induced (wound healing) migration assay; format: cell-based; conditions: Homo sapiens, read-out: inhibition of cell migration
Experimental: The anti-metastasis effect of YL529 was determined using a scratch-induced cell migration assay in vitro [24, 25]. Briefly, 1 × 10^5 HLECs were plated in 6 well plates and synchronized by serum-free ECM medium for 8 h, then used a micropipette tip to create a 2 mm-wide linear gap. Cells were washed to remove non-adherent cells and further incubated with fresh ECM medium containing or lacking YL529. An inverted microscope (Carl Zeiss, Germany) was used to photograph after YL529 treatment for another 48 h.
We next examined the effects of YL529 on HLECs migration using a wound healing migration assay.

[16] = C57 BL/6, mouse, plasma, single dose 150 mg/kg

CNC(=O)c1cc(Oc2ccc(NC(=O)c3cccc(C(F)(F)F)c3)cc2)ccn1 [YL529, N-methyl-4-(4-(3-(trifluoromethyl)benzamido)phenoxy)picolinamide4-methylbenzenesulfonate]
inhibition of VEGFR2 activity [1]: inhibited VEGFR2 activity | apoptotic tumor cells (TUNEL), increase vs. vehicle ([2]; 150 mg/kg): 20 fold | mice survived to 54 days ([2]; 150 mg/kg group): 60% | mice survived to 40 days ([2]; YL529 treated groups): 90% | body weight ([2]; at this dosage): no loss of body weight | tumor volume reduction ([2]; compared with vehicle-treated group, oral, dose not given): 66.22% | expression level of Bcl-2 [3]: increased | expression level of p-JNK [3]: decreased | inhibition at 2.5 µM ([4]; 2.5 μM, compared with vehicle): 28% | inhibition at 5 µM ([4]; 5 μM): 65.9% | inhibition at 10 µM ([4]; 10 μM): 90.2% | inhibition of VEGFR-3 activity [5]: 97% | number of mice with lung metastasis and inguinal lymph node metastasis [6]: significantly reduced | percent of mice with local lymph node metastasis ([6]; 37.5 mg/kg group): 50% | lymphangiogenesis in tumor tissues (LYVE-1 staining), change vs vehicle group ([6]; 150 mg/kg for 14 days): 34.71% | percent of mice with local lymph node metastasis ([6]; 150 mg/kg group): 20% | body weight ([6]; end of drug administration): no loss of body weight | weight changes of major organs (heart, liver, spleen, lung, kidney and brain) ([7]; 6000 mg/kg daily for 14 days): no obvious weight changes | Heart index ([7]; female): 0.42 ± 0.09% | Kidney index ([7]; female): 0.38 ± 0.09% | Liver index ([7]; female): 3.13 ± 0.09% | Lung index ([7]; female): 0.43 ± 0.06% | Spleen index ([7]; female): 0.25 ± 0.03% | Heart index ([7]; male): 0.42 ± 0.06% | Kidney index ([7]; male): 0.38 ± 0.09% | Liver index ([7]; male): 3.09 ± 0.13% | Lung index ([7]; male): 0.42 ± 0.09% | Spleen index ([7]; male): 0.24 ± 0.04% | Cmax ([8]; C57 BL/6, mouse, plasma, 150 mg/kg, read-out: peak plasma concentration (Cmax)): 18000 ng/mL | half-life ([8]; C57 BL/6, mouse, plasma, 150 mg/kg, single dose 150 mg/kg, read-out: t1/2z (converted)): 4.11 h | half-life ([8]; C57 BL/6, mouse, plasma, 150 mg/kg, single dose 150 mg/kg, read-out: t1/2β (converted)): 6.03 h | AUC(0-inf) [8, 16]: 171 µg·h/mL | AUC(0-t) [8, 16]: 167 µg·h/mL | Tmax [8, 16]: 2 h | Cmax ([8]; single dose 150 mg/kg): 18030 ng/mL | T1/2α ([8]; single dose 150 mg/kg): 1.39 h | IC50 [9]: 5.5 µM | body weight loss or tissue damage [10]: no obvious body weight loss or tissue damage | phosphorylation of VEGFR-3 [11]: potently inhibited | total expression of VEGFR-3 [11]: no change | IC50 [12]: 7.2 µM | inhibition at 10 µM [13]: 85.7% | IC50 [14]: 9.6 µM | inhibition at 2.5 µM ([15]; 2.5 μM): 44.3% | inhibition at 5 µM ([15]; 5 μM): 66.8% | inhibition at 10 µM ([15]; 10 μM): 79.8%
